In assay [1] the target is 5-hydroxytryptamine receptor 4 (Homo sapiens) (UniProt Q13639). The assay can be described thus: Intrinsic activity relative to the 5-HT was determined. The class given is functional. The conditions noted are these: Rattus norvegicus.
For assay [2] the target is unchanged. The assay can be described thus: Compound was tested for 5-HT4 receptor in rat esophageal muscularis mucosae; Antagonist. The conditions noted are these: filed as antagonist, target entry is the homologue from another species. The class given is functional.
Assay [3] has the same target. The assay can be described thus: Compound was tested for antagonist activity against 5-HT4 receptor in rat esophageal muscularis mucosae. The class given is functional, tissue-based. The conditions noted are these: Muscularis mucosa, target entry is the homologue from another species.

The term pKb denotes −log10 of the Kb, conventionally taken in molar units.

5-hydroxytryptamine receptor 4 (Homo sapiens), sequence (Q13639 whole entry): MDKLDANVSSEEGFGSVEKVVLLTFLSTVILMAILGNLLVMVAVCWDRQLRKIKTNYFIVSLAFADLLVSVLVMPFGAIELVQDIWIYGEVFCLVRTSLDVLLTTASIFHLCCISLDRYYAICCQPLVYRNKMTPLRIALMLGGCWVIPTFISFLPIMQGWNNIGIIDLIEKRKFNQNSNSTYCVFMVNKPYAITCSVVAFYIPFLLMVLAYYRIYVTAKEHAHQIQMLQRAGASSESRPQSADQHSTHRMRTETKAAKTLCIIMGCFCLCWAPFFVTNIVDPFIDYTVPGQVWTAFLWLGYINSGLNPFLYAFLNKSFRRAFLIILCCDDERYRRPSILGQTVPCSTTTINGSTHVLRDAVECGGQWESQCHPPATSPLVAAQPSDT

`COc1cc(N)c(Cl)cc1C(=O)OCCN1CCCCC1` yielded an Intrinsic activity in assay [1] of 0.5. `CCN(CC)CCNC(=O)c1cc(Cl)c(N)cc1OC`: in assay [1], the Intrinsic activity amounted to 0.5. As to `COc1cc(N)c(Cl)cc1C(=O)CCC1CCN(CCCNS(C)(=O)=O)CC1`, the Activity result in assay [2] is “Antagonist”. In the case of `COc1cc(N)c(Cl)cc1C(=O)OCCCN1CCCCC1`, the pKb in assay [3] stood at 7.9. In turn, `COc1cc(N)c(Cl)cc1C(=O)NCCN1CCCCC1` displayed an Intrinsic activity in assay [1] of 0.6. On to `COc1cc(N)c(Cl)cc1C(=O)CCC1CCN(CCNS(C)(=O)=O)CC1`, for which the Intrinsic activity in assay [1] was 0.5. Regarding `CCN(CC)CCOC(=O)c1cc(Cl)c(N)cc1OC`, the pKb in assay [3] turned out to be 7.3. As for `COc1cc(N)c(Cl)cc1C(=O)NC[C@@H]1CCN2CCC[C@@H]12`, the Intrinsic activity in assay [1] is 0.6.

Values taken from ChEMBL document CHEMBL1128004, “Ketones related to the benzoate 5-HT4 receptor antagonist RS-23597 are high affinity partial agonists” (Bioorg Med Chem Lett, 1994).
